Data set [1] is described as follows: Plasma levels of LDA and LD after intravenous LDA-HCl in mice. Format: in vivo. The procedure: (§1) The purpose of this experiment was to determine the plasma levels of LDA and LD following intravenous (IV) and oral (PO) administration of LDA-HCl in CD-1 mice.
(§2) CD-1 mice which were prepared for oral administration had to undergo fasting overnight prior to the dosing. The orally treated mice received food only 2 hour post-dosing. The method used to dose orally was oesophagotubage, and the IV mice were injected via a jugular vein under anesthesia (Isoflurane/O2). LDA-HCl solutions were dissolved in citrate buffer and LD/CD solution was prepared according to International Publication No. WO 2010/134074.
(§3) Blood samples were collected following the oral and IV dosing at pre-determined time points and plasma levels of LDA and LD were analysed by LC-MS-MS.

For data set [2] the following is noted: peripheral administration; cited from earlier work.
Data set [3] in a line: Dissolution and stability of LDA in organic acid solutions. It is filed as physicochemical. Conditions: for Chemical stability after 3 days at RT: in % (unit assumed). The procedure: The effect of organic acids on the stability of LDA solution was evaluated. Formulations were prepared by adding small aliquots of organic acid solutions, 100-300 μl, to ˜240 mg LDA until full dissolution while pH was monitored. The end point of acid addition was decided by appearance and/or by pH and/or total volume. LDA concentration was determined by HPLC.

A short description of data set [4]: Solubility of LDA in water in the absence of an acid. It is filed as physicochemical. Conditions: water with and without 0.3% Tween-80, absence of an acid; data not shown. From the text:
LDA in water with and without 0.3% Tween-80, at concentrations greater than 2.5% (data not shown), is not soluble in the absence of an acid.

A short description of data set [5]: Effect of preparation method and pH on stability of LDA-HCl/CD formulations. Format: physicochemical. As to conditions: 5 days at room temperature (Table 7). The procedure:
LDA-HCl/CD formulations were prepared by the following methods, and were then tested for stability. Method 1. Carbidopa (CD, powder) [Teva Pharmaceuticals Ltd., Israel] was added to LDA-HCl solution. […] Precipitation occurred at room temperature. Method 2. Liquid CD formulations were prepared by weighting CD [Teva Pharmaceuticals Ltd., Israel] in a suitable container with different L-arginine [Merck] weights to obtain a final concentration of 0.8% CD (wet form, 0.75% dry form) in different molar ratios to arginine (Table 6). CD formulations were prepared as described in the International Publication No. WO 2010/134074. LDA-HCl (powder) was added to CD solutions to attain the final desired concentration of LDA-HCl/CD formulations. Method 3. CD solutions (40 mg/ml, prepared as described in the International Publication No. WO 2010/134074) were mixed with LDA-HCl solutions to attain the final desired concentration of LDA/CD formulations. The LDA-HCl formulations were prepared by dissolving 200, 160 or 120 mg/ml of LDA-HCl in 40 mM citric buffer. The chemical stability of 7 LDA-HCl/CD formulations was evaluated by HPLC analysis at t0 and after 5 days at room temperature. The recovery after 5 days at room temperature was calculated compared to t0 (Table 7).

A short description of data set [6]: Plasma levels of LDA and LD after oral LDA-HCl in mice. Format: in vivo. The procedure:
as §1, §2, §3

Data set [7] in a line: Physical stability of LDA-HCl solutions with or without added CD-Arg formulation. Format: physicochemical. Conditions: 0.75% CD; CD:Arg 1:1.25; LDA:HCl 1:0.92; pH 5.69; time points not separated. The procedure: HCl solutions at 3 different concentrations containing 0.3% Tween 80 were added to LDA to obtain solutions having a final LDA concentration of 200 mg/ml and a molar ratio of 1:0.89, 1:0.92 and 1:0.95 LDA:HCl. CD-Arg formulation (CD:Arg molar ratio 1:1.25) was prepared in Tween 80 0.3% and was added gradually under stirring to 4 volumes of each of the 3 LDA-HCl solutions. The physical stability of the solutions was evaluated (Table 15). As shown, the addition of CD to LDA-HCl solutions yielded stable solutions if added to LDA-HCl solutions having a pH>3.8, preferably pH >4.6.

Data set [8] in a line: Stability of LDA 200 mg/ml solution with HCl. Format: physicochemical. The procedure: The effect of HCl, representing an inorganic acid, on the stability of LDA solution was evaluated. HCl solution containing 0.3% Tween 80 was added to LDA to obtain a solution having a final LDA concentration of 200 mg/ml and a molar ratio of about 1:1 LDA:HCl. The physical stability of the solution and the chemical stability of LDA were evaluated (Table 13). As shown, LDA (200 mg/ml) is stable for at least 9 days in solution containing HCl at a molar ratio of about 1:1.

A short description of data set [9]: Plasma pharmacokinetics of LDA and LD after oral LDA-HCl with and without CD in rats. Format: in vivo. Conditions: oral LDA-HCl 25 mg/kg. The procedure: The purpose of this experiment was to determine the plasma pharmacokinetics of LDA and LD following oral administration of LD or LDA-HCl with and without CD in Wistar rats.
Wistar rats underwent fasting overnight prior to the dosing and received food only 2 hour post-dosing. The method used to dose orally was via oesophagotubage. Solutions were prepared as described above.

Each structure is given as a SMILES string. Where only a bound is given, the exact number is not on record here.

Consider `N[C@@H](Cc1ccc(O)c(O)c1)C(=O)O` [LD, L-3,4-dihydroxyphenylalanine, reference compound], for which the LD plasma level result in data set [1] (IV LDA-HCl 20 mg/kg, 3 h thereafter) is “below limit of quantification”. In data set [2], the “share of administered levodopa that enters the brain unaltered” value was 1-3%.

As for `NC(=O)C(N)Cc1ccc(O)c(O)c1` (stereo not drawn) [LDA, 2-amino-3-(3,4-dihydroxyphenyl)propanamide], the “Chemical stability after 3 days at RT” value is listed as 98.4 in data set [3] (Acetic acid, LDA:acid 1:1.2, pH 5.0); 99.3 in [3] (Citric acid, LDA:acid 1:08, pH 2.8); 99.1 in data set [3] (Succinic acid, LDA:acid 1:0.5, pH 5.7); 100.5 in [3] (Tartaric acid, LDA:acid 1:0.6, pH 3.8). In addition, the “time physically and chemically stable at RT” value in data set [3] (LDA dissolved in organic acid solutions) was “at least 3 days”. For the same molecule, the “LDA” value in [3] (dissolved with Acetic acid, pH 5.0) was 199 mg/mL; in data set [3] (dissolved with Citric acid, pH 2.8), 236 mg/mL; in data set [3] (dissolved with Citric acid, pH 5.6), 175 mg/mL; in [3] (dissolved with Glutamic acid, pH 5.8), 128 mg/mL; in data set [3] (dissolved with Succinic acid, pH 5.7), 194 mg/mL; in [3] (dissolved with Tartaric acid, pH 3.8) it was 334 mg/mL. The “soluble concentration in water” value in [4] is listed as ≤ 2.5%. For the same molecule, in data set [5], the “chemical stability in LDA-HCl/CD formulations” value is “pH-dependent”. Also, the bioavailability entry in data set [6] (administered orally) is given as “low”. In addition, the “metabolism of LDA to LD” value in [6] (oral administration of LDA-HCl 20 mg/kg), in [1] (IV administration of LDA-HCl 20 mg/kg) and in [9] was “rapidly metabolized to LD” throughout. For the same molecule, the Precipitations entry in [7] was “Slight”. Further, the “time stable in solution” value in [8] (HCl at a molar ratio of about 1:1) is listed as “at least 9 days”. Further, the “Chemical stability of LDA 9 days” value in data set [8] (LDA:HCl molar ratio 1:0.94, pH 5.81, 0.3% Tween 80, in % (unit assumed)) is on record as 100.1. The LDA plasma level result in data set [1] (IV LDA-HCl 20 mg/kg, 1 h thereafter) is given as “below limit of quantification”. The “half-life of LDA compared with LD” value in [1] (IV and oral administration of LDA-HCl) is listed as “shorter than that of LD”.

These data come from patent publication US20170296491A1, “PHARMACEUTICAL COMPOSITIONS COMPRISING LEVODOPA AMIDE AND USES THEREOF” (priority 2015, published 2017).
